Here are results for one molecule from publication PMC12822184, “Targeting E2F8 sensitizes gemcitabine-resistant gallbladder cancer to PARP inhibitors by disrupting RRM2-driven DNA repair” (Journal of Experimental & Clinical Cancer Research : CR, 2025).

Test [1] deals with T1, E2F8 DNA-binding domain (Homo sapiens, UniProt A0AVK6).
T1 construct: N-terminal thioredoxin-6xHis tag removed by TEV protease; E. coli Rosetta (DE3) pLysS
The experiment in a line: SPR (Biacore 8K, CM5 amine coupling, steady-state […]).

For test [2], the target named is T2, E2F8 DNA-binding domain (Homo sapiens, UniProt A0AVK6, R156A/R314A).
T2 construct: N-terminal thioredoxin-6xHis tag removed by TEV protease; E. coli Rosetta (DE3) pLysS
T2 sequence (A0AVK6 110-350 R156A/R314A): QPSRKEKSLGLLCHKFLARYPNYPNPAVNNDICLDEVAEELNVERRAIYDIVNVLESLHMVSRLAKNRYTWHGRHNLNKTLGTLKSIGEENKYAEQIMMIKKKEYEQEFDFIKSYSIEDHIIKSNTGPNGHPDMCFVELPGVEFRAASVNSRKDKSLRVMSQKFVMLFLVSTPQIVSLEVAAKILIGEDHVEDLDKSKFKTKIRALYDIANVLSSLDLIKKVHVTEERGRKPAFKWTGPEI
Described as above.

SMILES strings stand for the structures.

T1 sequence (A0AVK6 110-350): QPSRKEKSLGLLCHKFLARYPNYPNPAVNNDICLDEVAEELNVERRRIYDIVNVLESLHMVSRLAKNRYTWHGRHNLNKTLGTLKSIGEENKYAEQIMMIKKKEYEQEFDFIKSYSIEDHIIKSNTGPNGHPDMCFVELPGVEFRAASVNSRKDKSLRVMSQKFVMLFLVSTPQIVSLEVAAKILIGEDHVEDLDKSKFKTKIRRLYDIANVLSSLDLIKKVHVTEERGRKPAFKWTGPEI

As to `O=C(Nc1ccccc1C(=O)O)c1cccc(N2C(=O)c3ccc(C(=O)Nc4ccccc4C(=O)O)cc3C2=O)c1` [HIT-4], the equilibrium dissociation constant (Kd) at E2F8 DNA-binding domain [1] came out at 0.15 µM; at E2F8 DNA-binding domain [2] it was 7.96 µM.
